The text below walks through data of article PMC11266321 (EJNMMI Radiopharmacy and Chemistry, 2024).

The subject of assay [1] is Glutamate (AMPA). Nature of the assay: Radioligand binding inhibition, Glutamate AMPA. Particulars: 10 µM; radioligand [^3H]AMPA; mean of duplicate. The protocol:
(§1) Interaction of MMP with 28 binding sites was examined, including major classes of neurotransmitter receptor, uptake system, and ion channels (Sekisui Medical, Naka, Japan). MMP was tested in all assays at 10 µM. […] 10.2.3 (GraphPad Software, San Diego, CA). Each determination was made in duplicate.
(§2) Test substance concentration : 10 µM, positive substance concentration : 10 µM
(§3) Data are expressed as the mean values of duplicate samples.
(§4) The % inhibition was calculated from “100 – binding ratio”.
(§5) Binding ratio: [(B - N) / (B0 - N)] × 100 (%)
(§6) B: Bound radioactivity in the presence of test substance and positive substance (individual value)
(§7) B0: Total bound radioactivity in the absence of test substance and positive substance (mean value)
(§8) N: Non-specific bound radioactivity (mean value)

Assay [2] has as its target T1, Dopamine D2 (Homo sapiens, UniProt P14416).
T1 construct: Sekisui Medical (contract laboratory)
As to the kind of experiment: Radioligand binding inhibition, Dopamine D2. The settings on record: 10 µM; radioligand [^3H]Spiperone; mean of duplicate. The protocol:
as §1, §2, §3, §4, §5, §6, §7, §8

The test system of assay [3] is GABA A (agonist site). Nature of the assay: Radioligand binding inhibition, GABA A agonist site. The settings on record: 10 µM; radioligand [^3H]Muscimol; mean of duplicate. The protocol:
as §1, §2, §3, §4, §5, §6, §7, §8

In assay [4] the test system is Glutamate (Ketamine). As to the kind of experiment: Radioligand binding inhibition, Glutamate (Ketamine). Particulars: 10 µM; radioligand [^3H]Kainic acid; mean of duplicate.
The target in assay [5] is T2, Serotonin 5HT3 (human) (Homo sapiens, UniProt P46098).
T2 construct: Sekisui Medical (contract laboratory that ran the panel)
Nature of the assay: Radioligand binding inhibition, Serotonin 5HT3. Particulars: 10 µM; radioligand [^3H]GR65630; mean of duplicate. Here is the method:
as §1, §2, §3, §4, §5, §6, §7, §8

Assay [6] concerns the target T3, Histamine H2 (Homo sapiens, UniProt P25021).
T3 construct: Sekisui Medical (contract laboratory)
As to the kind of experiment: Radioligand binding inhibition, Histamine H2. The settings on record: 10 µM; radioligand [^125I]Iodoaminopotentidine; mean of duplicate. The protocol: as §1, §2, §3, §4, §5, §6, §7, §8

Assay [7] relates to Nicotinic (neuronal). It counts as binding. The settings on record: 10 µM; radioligand [^3H]Cytisine; mean of duplicate.
For assay [8], the target named is T4, Serotonin 5HT1A (Homo sapiens, UniProt P08908).
T4 construct: Sekisui Medical (contract laboratory)
Nature of the assay: Radioligand binding inhibition, Serotonin 5HT1A. Particulars: 10 µM; radioligand [^3H]8-OH DPAT; mean of duplicate. The protocol: as §1, §2, §3, §4, §5, §6, §7, §8

The test system of assay [9] is β-Adrenergic (non-selective). Nature of the assay: Radioligand binding inhibition, β-Adrenergic. The settings on record: 10 µM; radioligand [^3H]DHA; mean of duplicate. The protocol:
as §1, §2, §3, §4, §5, §6, §7, §8

For assay [10], the system named is α2-Adrenergic (non-selective). Nature of the assay: Radioligand binding inhibition, α2-Adrenergic. Particulars: 10 µM; radioligand [^3H]Rauwolscine; mean of duplicate. The protocol:
as §1, §2, §3, §4, §5, §6, §7, §8

Assay [11] deals with T5, Serotonin 5HT2A (Homo sapiens, UniProt P28223).
T5 construct: Sekisui Medical (contract laboratory that ran the panel)
As to the kind of experiment: Radioligand binding inhibition, Serotonin 5HT2A. The settings on record: 10 µM; radioligand [^3H]Ketanserin; mean of duplicate. Here is the method:
as §1, §2, §3, §4, §5, §6, §7, §8

In assay [12] the test system is Glutamate (NMDA phencyclidine site). Nature of the assay: Radioligand binding inhibition, Glutamate NMDA phencyclidine site. The settings on record: 10 µM; radioligand [^3H]MK-801; mean of duplicate. Here is the method:
as §1, §2, §3, §4, §5, §6, §7, §8

The test system of assay [13] is Glutamate (NMDA agonist site). Nature of the assay: Radioligand binding inhibition, Glutamate NMDA agonist site. The settings on record: 10 µM; radioligand [^3H]CGP-39653; mean of duplicate. The protocol: as §1, §2, §3, §4, §5, §6, §7, §8
The test system of assay [14] is Glutamate (non-selective). As to the kind of experiment: Radioligand binding inhibition, Glutamate non-selective. Particulars: 10 µM; radioligand [^3H]Glutamic acid; mean of duplicate. Here is the method: as §1, §2, §3, §4, §5, §6, §7, §8
The subject of assay [15] is Opiate (non-selective). Nature of the assay: Radioligand binding inhibition, Opiate. The settings on record: 10 µM; radioligand [^3H]Naloxone; mean of duplicate. The protocol: as §1, §2, §3, §4, §5, §6, §7, §8
In assay [16] the test system is GABA A (BZ central). As to the kind of experiment: Radioligand binding inhibition, GABA A BZ central. Particulars: 10 µM; radioligand [^3H]Flunitrazepam; mean of duplicate. Here is the method:
as §1, §2, §3, §4, §5, §6, §7, §8

Assay [17] relates to Glycine (strychnine site). It is filed as binding. The settings on record: 10 µM; radioligand [^3H]Strychine; mean of duplicate.
For assay [18], the target named is T6, Glutamate (NMDA glycine site) (Homo sapiens, UniProt Q05586).
T6 construct: Sekisui Medical (contract laboratory)
Nature of the assay: Radioligand binding inhibition, Glutamate NMDA glycine site. The settings on record: 10 µM; radioligand [^3H]MDL105,519; mean of duplicate. Here is the method: as §1, §2, §3, §4, §5, §6, §7, §8

T2 sequence (P46098 24-478): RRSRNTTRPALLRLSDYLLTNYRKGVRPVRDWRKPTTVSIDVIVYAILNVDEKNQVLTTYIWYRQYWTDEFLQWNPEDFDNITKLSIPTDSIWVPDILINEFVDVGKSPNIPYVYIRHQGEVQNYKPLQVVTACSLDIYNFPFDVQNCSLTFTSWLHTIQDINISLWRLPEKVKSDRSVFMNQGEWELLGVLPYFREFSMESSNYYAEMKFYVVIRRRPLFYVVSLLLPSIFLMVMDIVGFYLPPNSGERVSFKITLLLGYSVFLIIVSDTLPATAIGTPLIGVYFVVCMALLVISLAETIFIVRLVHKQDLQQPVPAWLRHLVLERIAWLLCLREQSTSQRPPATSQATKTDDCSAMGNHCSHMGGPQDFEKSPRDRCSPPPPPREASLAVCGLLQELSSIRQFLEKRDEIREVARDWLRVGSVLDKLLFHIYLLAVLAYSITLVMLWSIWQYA
T1 sequence (P14416 whole entry): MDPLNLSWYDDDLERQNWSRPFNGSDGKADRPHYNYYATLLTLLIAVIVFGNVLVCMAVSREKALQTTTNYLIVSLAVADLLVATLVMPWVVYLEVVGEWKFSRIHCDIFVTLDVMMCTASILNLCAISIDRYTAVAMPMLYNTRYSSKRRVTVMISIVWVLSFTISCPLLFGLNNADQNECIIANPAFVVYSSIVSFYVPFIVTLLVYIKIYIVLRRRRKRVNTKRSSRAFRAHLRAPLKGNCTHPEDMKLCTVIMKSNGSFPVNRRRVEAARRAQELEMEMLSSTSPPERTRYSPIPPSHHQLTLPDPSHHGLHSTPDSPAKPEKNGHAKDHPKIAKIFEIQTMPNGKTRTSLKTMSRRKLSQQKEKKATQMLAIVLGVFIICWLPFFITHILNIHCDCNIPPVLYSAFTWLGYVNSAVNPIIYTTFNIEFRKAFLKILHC
T4 sequence (P08908 whole entry): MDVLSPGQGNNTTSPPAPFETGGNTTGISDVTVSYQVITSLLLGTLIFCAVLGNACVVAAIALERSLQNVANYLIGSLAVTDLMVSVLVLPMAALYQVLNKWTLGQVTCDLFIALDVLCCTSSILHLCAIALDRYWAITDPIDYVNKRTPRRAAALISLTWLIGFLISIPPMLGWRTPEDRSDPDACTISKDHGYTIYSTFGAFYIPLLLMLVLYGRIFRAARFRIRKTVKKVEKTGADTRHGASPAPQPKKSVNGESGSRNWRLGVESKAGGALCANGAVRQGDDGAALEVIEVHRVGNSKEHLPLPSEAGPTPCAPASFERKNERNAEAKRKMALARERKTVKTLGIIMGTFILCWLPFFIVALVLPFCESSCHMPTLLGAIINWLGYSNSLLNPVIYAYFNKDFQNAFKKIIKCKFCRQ
T3 sequence (P25021 whole entry): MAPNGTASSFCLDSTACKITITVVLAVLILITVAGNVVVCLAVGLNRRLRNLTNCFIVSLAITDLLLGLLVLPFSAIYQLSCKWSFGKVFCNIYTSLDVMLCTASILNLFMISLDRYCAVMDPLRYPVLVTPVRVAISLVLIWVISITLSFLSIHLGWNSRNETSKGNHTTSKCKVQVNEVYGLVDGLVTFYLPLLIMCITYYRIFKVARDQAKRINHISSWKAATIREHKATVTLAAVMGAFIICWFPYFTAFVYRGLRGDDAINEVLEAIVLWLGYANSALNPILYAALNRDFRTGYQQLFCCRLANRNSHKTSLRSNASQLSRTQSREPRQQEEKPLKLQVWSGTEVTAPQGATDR
T5 sequence (P28223 whole entry): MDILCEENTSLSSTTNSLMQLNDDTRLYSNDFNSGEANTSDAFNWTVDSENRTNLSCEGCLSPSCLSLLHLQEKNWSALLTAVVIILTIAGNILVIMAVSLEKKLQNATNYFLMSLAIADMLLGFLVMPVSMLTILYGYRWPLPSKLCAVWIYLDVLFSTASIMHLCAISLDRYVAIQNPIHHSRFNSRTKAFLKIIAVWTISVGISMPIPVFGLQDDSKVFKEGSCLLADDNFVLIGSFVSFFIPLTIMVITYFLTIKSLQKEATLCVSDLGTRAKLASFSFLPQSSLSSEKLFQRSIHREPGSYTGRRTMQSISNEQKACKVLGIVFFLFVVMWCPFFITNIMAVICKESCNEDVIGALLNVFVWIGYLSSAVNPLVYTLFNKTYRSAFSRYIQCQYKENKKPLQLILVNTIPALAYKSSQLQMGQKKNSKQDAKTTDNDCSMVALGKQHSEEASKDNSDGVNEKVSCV

For `Cc1o[nH]c(=O)c1C[C@H](N)C(=O)O` [(S)-AMPA, reference compound], the “Inhibition ratio (%)” value in [1] is given as 98.65%.
With (+)-Butaclamol [reference compound], the “Inhibition ratio (%)” value in assay [2] was 95.06%.
Consider `NCc1cc(=O)[nH]o1` [Muscimol, reference compound], for which the “Inhibition ratio (%)” value in [3] is on record as 96.50%.
Turning to `C=C(C)[C@H]1CN[C@H](C(=O)O)[C@H]1CC(=O)O` [Kainic acid, reference compound], the “Inhibition ratio (%)” value in assay [4] came to 97.79%.
With `CN1[C@@H]2CC[C@H]1C[C@@H](OC(=O)c1c[nH]c3ccccc13)C2` [Tropisetron, reference compound], the “Inhibition ratio (%)” value in [5] is recorded as 99.78%.
For `CN/C(=N/CCSCc1nc[nH]c1C)NC#N` [Cimetidine, reference compound], the “Inhibition ratio (%)” value in assay [6] was 97.63%.
Take (±)-Nicotine [reference compound]: the “Inhibition ratio (%)” value in assay [7] was 95.62%.
As to `NCCc1c[nH]c2ccc(O)cc12` [Serotonin, reference compound], the “Inhibition ratio (%)” value in assay [8] worked out at 95.99%.
As to `CC(C)NCC(O)COc1cccc2ccccc12` (racemic) [(±)-Propranolol, reference compound], in assay [9], the “Inhibition ratio (%)” value is 97.25%.
Regarding `COC(=O)[C@@H]1[C@H]2C[C@H]3c4[nH]c5ccccc5c4CCN3C[C@@H]2CC[C@@H]1O` [Yohimbine, reference compound], the “Inhibition ratio (%)” value in assay [10] is 89.82%.
As to `O=C(c1ccc(F)cc1)C1CCN(CCn2c(=O)[nH]c3ccccc3c2=O)CC1` [Ketanserin, reference compound], the “Inhibition ratio (%)” value in assay [11] is on record as 98.94%.
(+)-MK-801 [reference compound]: in [12], the “Inhibition ratio (%)” value was found to be 100.00%.
For `N[C@@H](CCC(=O)O)C(=O)O` [L-Glutamic acid, reference compound], the results for the “Inhibition ratio (%)” value in [13] and in assay [14] were 100.00% and 93.56%, respectively.
For the compound `C=CCN1CC[C@]23c4c5ccc(O)c4O[C@H]2C(=O)CC[C@@]3(O)[C@H]1C5` [Naloxone, reference compound], in [15], the “Inhibition ratio (%)” value is recorded as 96.53%.
Regarding `CN1C(=O)CN=C(c2ccccc2)c2cc(Cl)ccc21` [Diazepam, reference compound], the “Inhibition ratio (%)” value in assay [16] is reported as 100.00%.
Turning to `O=C1C[C@@H]2OCC=C3CN4CC[C@]56c7ccccc7N1[C@H]5[C@H]2[C@H]3C[C@H]46` [Strychnine, reference compound], the “Inhibition ratio (%)” value in [17] is 100.00%.
`O=C(O)/C(=C/c1c(C(=O)O)[nH]c2cc(Cl)cc(Cl)c12)c1ccccc1` [MDL105,519, reference compound]: the “Inhibition ratio (%)” value in assay [18] was 97.35%.
